Reference: patent US20230000940A1, “Composition for prevention or treatment of Porcine epidemic diarrhea virus infection comprising curcuminoid and licorice extracts or fraction thereof” (KOREA RESEARCH INSTITUTE OF BIOSCIENCE AND BIOTECHNOLOGY, priority 2019, published 2023)

How the values were obtained:
[1] = test system: PED coronavirus; conditions: component alone; statement without data; cited from earlier work
[2] = test system: TNF-α; test: Inhibitory effect on TNF-α in PED coronavirus-infected Vero cells; type: cell-based; conditions: 10 μM, vs virus-infected group
Experimental: To investigate the inhibitory effect of the complex on TNF-α, which is a pro-inflammatory cytokine involved in promoting inflammation, virus infection was performed in the same manner as in Example 2-1, followed by treatment with the complex.

[3] = test system: IL-6; test: Inhibitory effect on IL-6 in PED coronavirus-infected Vero cells; type: cell-based; conditions: 10 μM, vs virus-infected group
Experimental: To investigate the inhibitory effect of the complex on IL-6, which is a pro-inflammatory cytokine involved in promoting inflammation, virus infection was performed in the same manner as in Example 2-1, followed by treatment with the complex.

[4] = test system: IL-8; test: Inhibitory effect on IL-8 in PED coronavirus-infected Vero cells; type: cell-based; conditions: 10 μM, vs virus-infected group
Experimental: To investigate the inhibitory effect of the complex on IL-8, which is a pro-inflammatory cytokine involved in promoting inflammation, virus infection was performed in the same manner as in Example 2-1, followed by treatment with the complex.

[5] = test system: nucleoprotein (N protein) of the PED coronavirus; conditions: 10 μM, vs virus-infected group
Experimental: To investigate the target protein expression inhibitory effect of the complex on the nucleoprotein (N protein) of the PED coronavirus, Vero cells were infected with 0.001 MOI of PED coronavirus for 1 hour.

Row | SMILES | inhibitory effect against PED coronavirus [1] | inhibitory effect on TNF-α [2] | inhibitory effect on IL-6 [3] | inhibitory effect on IL-8 [4] | nucleoprotein synthesis inhibition (inhibitory effect) [5]
1 | COc1cc(/C=C/C(=O)/C=C(O)/C=C/c2ccc(O)c(OC)c2)ccc1O [curcumin] | no inhibitory effect |  |  |  | 
2 | O=c1cnn([C@@H]2O[C@H](CO)[C@@H](O)[C@H]2O)c(=O)[nH]1 [6-azauridine] |  | 3.8 fold | 5.8 fold | 25.4 fold | 6.8 fold
